# Test results as given in paper PMC11093748, “De novo identification of CD4^+ T cell epitopes” (Nature Methods, 2024).
# Legend:
# Jurkat cells, No TCR = experiment: Single SABR-II co-incubation, background without TCR; type: cell-based, human; settings: No TCR, Ext. Data Fig. 6C, 18-20 hr
# Description: (§1) We performed systematic screening of the cloned TCRs against the I-Ag7 SABR-II library. Several TCRs along with a positive control (such as BDC2.5 or 4-8Ins) were screened individually against the library for each sort (Extended Data Fig. 6a and Supplementary Table 4). High- and low-confidence ES zones for each screened TCR were defined by the ES values of the control TCR’s cognate epitopes. For all putative cognate epitopes, single SABR-IIs were constructed, expressed in NFAT–GFP Jurkat cells and used for co-incubation with the corresponding TCRs. Co-incubation assays that yielded a GFP signal higher than that obtained in assays with no TCR were determined to be positive and the epitopes deemed true cognate ligands (Extended Data Fig. 6b,c). Using this strategy, we obtained epitopes in the high-confidence zone for eight TCRs (Fig. 3a and Extended Data Fig. 6b,d). Among numerous altered peptide ligands (APLs), these TCRs recognized the physiological InsC-ChgA HIP ([…] and analogs, recognized by TCR5, TCR6B, TCR9 and TCR34), InsC-Iapp HIP ([…] and analogs, recognized by TCR4 and TCR15) and InsB9:23 ([…] and analogs recognized by TCR24 and TCR37). These cognate high-confidence hits were validated using single SABR-II co-incubation assays (Fig. 3b and Extended Data Fig. 7a). Further validations using in vitro mouse interleukin-2 (mIL-2) secretion by TCR-expressing 5KC reporter cells[13] or CD25 expression by TCR-expressing splenic CD4^+ T cells upon stimulation with the cognate epitope were performed (Extended Data Fig. 7b,c). Furthermore, low-confidence hits were called for ten TCRs and tested in co-incubation assays.
# (§2) For SABR library screens, 3 × 10^6 NFAT–GFP Jurkat cells expressing the SABR library were labeled with CellTrace Violet (BioLegend) according to the manufacturer’s protocol before incubation with 3 × 10^6 Jurkat cells expressing the TCR of interest. These mixtures were incubated in a six-well plate for 16–20 h. Cells were stained with anti-CD69-APC-Cy7 where indicated (BioLegend) and the top 1–2% of GFP^+CD69^+ cells were sorted for genomic DNA extraction, indexing and sequencing (see below). Multiplexed assays were scaled on a per-TCR basis (for example 3 × 10^6 for each of three TCRs against 9 × 10^6 library cells). For single SABR assays, unless otherwise defined, 5 × 10^5 SABR expressing NFAT–GFP Jurkat cells (or 5KC cells) were labeled with CellTrace Violet (BioLegend) according to the manufacturer’s protocol before incubation with 5 × 10^5 TCR-expressing Jurkat cells (or 5KC cells) in a round-bottom 96-well plate for 16–20 h. Cells were stained with anti-CD69-APC-Cy7 when indicated and acquired on the Attune NxT flow cytometer (Thermo Fisher Scientific). All flow analysis was performed using FlowJo (BD). For Daudi cell co-culture, 1 × 10^6 Jurkat cells expressing the TCR of interest were incubated with 1 × 10^6 Daudi cells expressing a SABR of interest for 3 days. On day 3, cells were labeled with anti-RT1B-PE and anti-Fas-APC-Cy7 before being acquired on the Attune NxT flow cytometer.
# TCR5 = experiment: Single SABR-II co-incubation, NFAT-GFP Jurkat; type: cell-based, mouse; settings: TCR 5, Ext. Data Fig. 6C, 18-20 hr
# Description: as §1, §2
# TCR4 = experiment: Single SABR-II co-incubation, NFAT-GFP Jurkat; type: cell-based, mouse; settings: TCR 4, Ext. Data Fig. 6C, 18-20 hr
# Description: as §1, §2
Sequence,"%GFP+CD69+ cells of SABR-NFAT-GFP-Jurkat cells (Jurkat cells, No TCR; technical replicate 1) [%]","%GFP+CD69+ cells of SABR-NFAT-GFP-Jurkat cells (Jurkat cells, No TCR; technical replicate 2) [%]",%GFP+CD69+ cells of SABR-NFAT-GFP-Jurkat cells (TCR5; technical replicate 1) [%],%GFP+CD69+ cells of SABR-NFAT-GFP-Jurkat cells (TCR5; technical replicate 2) [%],%GFP+CD69+ cells of SABR-NFAT-GFP-Jurkat cells (TCR4; technical replicate 1) [%],%GFP+CD69+ cells of SABR-NFAT-GFP-Jurkat cells (TCR4; technical replicate 2) [%]
EKAHHAIWARMDAKK,0.95,0.84,38,39.6,–,–
EKAHLAIWARMDAKK,0.84,1,79.9,77.9,–,–
PGAGDLQTLALNAARDP,2.65,2.56,–,–,20.2,20.4
RRALQTLALNAARDP,4.17,3.8,–,–,12.8,12.1
